Measured values published in patent US4061645A, “2-Trichloromethyl-5-methylsulfinyl-1,3,4-thiadiazole” (Schering Aktiengesellschaft, priority 1972, dated 1977).

What was measured:
Asperqilus niger = assay: Agar test (Example 7), Aspergillus; assay type: cell-based; conditions: 10 ppm; 5 days at 22° C; control 100
Procedure: (§1) The fungicidal action of the agents according to the invention was tested in artificial nutrient media against plant-pathogenic fungi in Petri dishes (agar test). The procedure was to sterilize the medium consisting of 2% malt extract and 1.5% agar-agar powder. Before the solidification of the medium, the active substances were added to it, mixing thoroughly, so that the medium received 10 parts of active substance per million (ppm). After the solidification of the medium, the latter was inoculated with a platinum dropper which contained 100 spores each of the fungi to be tested, and after five days at 22° C, an evaluation was made by measuring the diameter of the colonies in mm.

Botrytis cinerea = assay: Agar test (Example 7), Botrytis; assay type: cell-based; conditions: 10 ppm; 5 days at 22° C; control 100
Procedure: as §1

Rhizoctonia solani [1] = assay: Limit concentration of soil-fungicidal effectiveness, Rhizoctonia solani, infested soil seeded with peas (Example 1); assay type: in vivo; conditions: soil, 480 h, 20 to 23 days, 22°-25° C, read-out: Limit concentration of the fungicidal effectiveness
Procedure: Limit concentrations of the soil-fungicidal effectiveness at homogeneous mixture of the products with the infested soil. Basic condition in the evaluation are a sound root formation without fungus necroses and germination of the seed of at least 90% compared with the result obtained in steamed soil. Per concentration there were seeded 25 grains of peas of the variety "Miracle of Kelvedon" (marrow pea) without a waiting period. The cultivation time in the tests was 20 to 23 days at a temperature of 22°-25° C. Four commercial products were included in the test series.
Rhizoctania solani: -- Steamed compost soil was inoculated with mycelium of Rhizoctonia solani.

Thielaviopsis basicola = assay: Control of Thielaviopsis basicola on tobacco (Example 10); assay type: in vivo; design: key to Attack 0-5: 0: no attack; 1: very slight attack; 2: slight attack; 3: medium attack; 4: strong attack; 5: very strong attack; conditions: five weeks
Procedure: Control of Thielaviopsis basicola on tobacco.
A 10% powder preparation of 2-trifluoromethyl-5-methylsulfonyl-1,3,4-thiadiazole was homogeneously admixed to a soil heavily infested by Thielaviopsis basicola. After a reaction time of one week, tobacco seedlings of the variety Nicotiana tabacum var. "White Burley" were set out and cultivated for five weeks in the greenhouse at 22°-32° C. The attack and weight of the fresh plant are evident from the table.

Stemphylium ilicis = assay: Agar test (Example 7), Stemphylium; assay type: cell-based; conditions: 10 ppm; 5 days at 22° C; control 100
Procedure: as §1

Helminthosporium sativum = assay: Agar test (Example 7), Helminthosporium; assay type: cell-based; conditions: 10 ppm; 5 days at 22° C; control 100
Procedure: as §1

Pythium ultimum = Pythium ultimum infested compost soil, marrow peas (Example 2); assay type: in vivo; conditions: for Weight of fresh plant: 3 weeks; for Number of sound peas after 3 wks.: of 25 grains
From the text: Steamed compost soil was inoculated with mycelium of Pythium ultimum.

[2] = system: Colletotrichum gloeosporioides; assay: Agar test (Example 7), Colletotrichum; assay type: cell-based; conditions: 10 ppm; 5 days at 22° C; control 100
Procedure: as §1

Meloidogyne incognita = assay: Nematocidal action, infested compost soil, cucumber seeds (Example 8); assay type: in vivo; conditions: 30 days
Procedure: The products as 20% powder preparations were homogeneously admixed with a compost soil heavily infested by root gal nematodes. Without a waiting period, 20 cucumber seeds per concentration were seeded. After a cultivation time of 30 days at a temperature of 23°-25° C, the nematocidal action was evaluated by counting the root galls formed in the waterbath. The following table states the reduction of attack in percent. In the control, an average of 90 root galls per seedling had formed.

Rhizoctonia solani [3] = assay: Rhizoctonia solani infested compost soil, marrow peas (Example 3); assay type: in vivo; conditions: for Weight of fresh plant: 3 weeks; for Number of sound peas after 3 wks.: of 25 grains
From the text: Steamed compost soil was inoculated with mycelium of Rhizoctonia solani. After homogeneous mixture of the products with the infested soil, the products were present in the form of 20% powder preparations, the seeding of 25 grains of marrow peas of the variety "Miracle of Kelvedon" per concentration was effected without waiting period in clay dishes holding 1 liter of soil. The table lists the number of germinated sound peas, the weight of the fresh plant, and a root evaluation after a cultivation period of three weeks at 22°-25° C.

[4] = system: Fusarium oxysporum f. callistephi; assay: Fusarium infested compost soil, Callistephus chinesis seedlings (Example 5); assay type: in vivo; conditions: of 4 seedlings
From the text: Steamed compost soil was inoculated with a spore suspension of Fusarium oxysporum f. callistephi. After homogeneous mixture of the products with the infested soil, the products were present as 20% powder preparations, and after a waiting period of 8 days, there were set out per concentration 4 seedlings of Callistephus chinesis, master aster "Sun Ray" as host plants.

[5] = 20 mg active ingr. per liter of soil
[6] = 30 mg active ingr. per liter of soil
[7] = 40 mg active ingr. per liter of soil
[8] = 10 mg active ingr. per liter of soil
[9] = 50 mg active ingredient per liter of soil
[10] = 100 mg active ingredient per liter of soil
[11] = 200 mg active ingr. per liter of soil

| Structure (SMILES) | diameter of the colonies (Asperqilus niger) | diameter of the colonies (Botrytis cinerea) | minimal effective concentration (Rhizoctonia solani [1]) | diameter of the colonies (Stemphylium ilicis) | diameter of the colonies (Helminthosporium sativum) | diameter of the colonies [2] | also measured |
| --- | --- | --- | --- | --- | --- | --- | --- |
| CS(=O)(=O)c1nnc(C(F)(F)F)s1 [Compound 1, 2-trifluoromethyl-5-methylsulfonyl-1,3,4-thiadiazole] | 0 mm | 0 mm | 25 µg/mL | 0 mm | 0 mm | 0 mm | Attack 0-5 (Thielaviopsis basicola; [5]): 0.5; Weight of fresh plant (leaves and stems) (Thielaviopsis basicola; [5]): 115 g; Weight of roots (air-dry) (Thielaviopsis basicola; [5]): 11 g; Attack 0-5 (Thielaviopsis basicola; [6]): 0; Weight of fresh plant (leaves and stems) (Thielaviopsis basicola; [6]): 118 g; Weight of roots (air-dry) (Thielaviopsis basicola; [6]): 11 g; Attack 0-5 (Thielaviopsis basicola; [7]): 0; Weight of fresh plant (leaves and stems) (Thielaviopsis basicola; [7]): 104 g; Weight of roots (air-dry) (Thielaviopsis basicola; [7]): 9 g; Weight of fresh plant (Pythium ultimum; [8]): 20 g; Number of sound peas after 3 wks. (Pythium ultimum; [8]): 25; Weight of fresh plant (Pythium ultimum; [5]): 19 g; Number of sound peas after 3 wks. (Pythium ultimum; [5]): 22; Weight of fresh plant (Pythium ultimum; [6]): 19 g; Number of sound peas after 3 wks. (Pythium ultimum; [6]): 23 |
| CC[S+]([O-])c1nnc(C(Cl)Cl)s1 (stereo not shown) [Compound 4, 2-dichloromethyl-5-ethylsulfinyl-1,3,4-thiadiazole] | – | – | 20 µg/mL | – | – | – | Nematocidal action in % (reduction of attack) (Meloidogyne incognita; 40 mg per liter of soil): 96%; Nematocidal action in % (reduction of attack) (Meloidogyne incognita; 60 mg per liter of soil): 99% |
| CCC[S+]([O-])c1nnc(C(Cl)Cl)s1 (stereo not shown) [Compound 5, 2-dichloromethyl-5-propylsulfinyl-1,3,4-thiadiazole] | – | – | 20 µg/mL | – | – | – | Nematocidal action in % (reduction of attack) (Meloidogyne incognita; 40 mg per liter of soil): 90%; Nematocidal action in % (reduction of attack) (Meloidogyne incognita; 60 mg per liter of soil): 98% |
| CC[S+]([O-])c1nnc(C(Cl)(Cl)Cl)s1 (stereo not shown) [Compound 9, 2-trichloromethyl-5-ethylsulfinyl-1,3,4-thiadiazole] | 0 mm | 0 mm | 10 µg/mL | 0 mm | 0 mm | 0 mm | Weight of fresh plant (Rhizoctonia solani [3]; [8]): 18 g; Number of sound peas after 3 wks. (Rhizoctonia solani [3]; [8]): 22; Weight of fresh plant (Rhizoctonia solani [3]; [5]): 16 g; Number of sound peas after 3 wks. (Rhizoctonia solani [3]; [5]): 22; Weight of fresh plant (Rhizoctonia solani [3]; [6]): 17 g; Number of sound peas after 3 wks. (Rhizoctonia solani [3]; [6]): 23; Number of attacked plants after 3 weeks [4, 9]: 0; Number of attacked plants after 3 weeks [4, 10]: 0 |
| CCS(=O)(=O)c1nnc(C(Cl)Cl)s1 [Compound 18, 2-dichloromethyl-5-ethylsulfonyl-1,3,4-thiadiazole] | 0 mm | 13 mm | 100 µg/mL | 0 mm | 0 mm | 41 mm | Nematocidal action in % (reduction of attack) (Meloidogyne incognita; 40 mg per liter of soil): 61%; Nematocidal action in % (reduction of attack) (Meloidogyne incognita; 60 mg per liter of soil): 90% |
| CCCS(=O)(=O)c1nnc(C(Cl)Cl)s1 [Compound 19, 2-dichloromethyl-5-propylsulfonyl-1,3,4-thiadiazole] | 0 mm | 0 mm | 50 µg/mL | 0 mm | 0 mm | 0 mm | Nematocidal action in % (reduction of attack) (Meloidogyne incognita; 40 mg per liter of soil): 72%; Nematocidal action in % (reduction of attack) (Meloidogyne incognita; 60 mg per liter of soil): 82%; Number of attacked plants after 3 weeks [4, 9]: 0; Number of attacked plants after 3 weeks [4, 10]: 0 |
| CCS(=O)(=O)c1nnc(C(Cl)(Cl)Cl)s1 [Compound 22, 2-trichloromethyl-5-ethylsulfonyl-1,3,4-thiadiazole] | 0 mm | 0 mm | 50 µg/mL | 0 mm | 0 mm | 0 mm | Number of attacked plants after 3 weeks [4, 9]: 0; Number of attacked plants after 3 weeks [4, 10]: 0 |
| CCCS(=O)(=O)c1nnc(C(Cl)(Cl)Cl)s1 [Compound 23, 2-trichloromethyl-5-propylsulfonyl-1,3,4-thiadiazole] | 0 mm | 0 mm | 30 µg/mL | 0 mm | 0 mm | 0 mm | Weight of fresh plant (Rhizoctonia solani [3]; [8]): 9 g; Number of sound peas after 3 wks. (Rhizoctonia solani [3]; [8]): 13; Weight of fresh plant (Rhizoctonia solani [3]; [5]): 17 g; Number of sound peas after 3 wks. (Rhizoctonia solani [3]; [5]): 21; Weight of fresh plant (Rhizoctonia solani [3]; [6]): 20 g; Number of sound peas after 3 wks. (Rhizoctonia solani [3]; [6]): 24 |
| CCCCS(=O)(=O)c1nnc(C(Cl)(Cl)Cl)s1 [Compound 25, 2-trichloromethyl-5-butylsulfonyl-1,3,4-thiadiazole] | 0 mm | 0 mm | 25 µg/mL | 0 mm | 0 mm | 0 mm | Number of attacked plants after 3 weeks [4, 9]: 0; Number of attacked plants after 3 weeks [4, 10]: 0 |
| CCCCCCS(=O)(=O)c1nnc(C(Cl)(Cl)Cl)s1 [Compound 27, 2-trichloromethyl-5-hexylsulfonyl-1,3,4-thiadiazole] | 0 mm | 0 mm | 25 µg/mL | 0 mm | 0 mm | 0 mm | – |
| CCCCCCCS(=O)(=O)c1nnc(C(Cl)(Cl)Cl)s1 [Compound 28, 2-trichloromethyl-5-heptylsulfonyl-1,3,4-thiadiazole] | 0 mm | 0 mm | 200 µg/mL | 0 mm | 0 mm | 0 mm | – |
| CCCCCCCCS(=O)(=O)c1nnc(C(Cl)(Cl)Cl)s1 [Compound 29, 2-trichloromethyl-5-octylsulfonyl-1,3,4-thiadiazole] | 19 mm | 18 mm | > 200 µg/mL | 0 mm | 0 mm | 0 mm | – |
| CS(=O)(=O)c1nnc(C(Br)Br)s1 [Compound 32, 2-dibromomethyl-5-methylsulfonyl-1,3,4-thiadiazole] | 0 mm | 0 mm | 50 µg/mL | 0 mm | 0 mm | 0 mm | – |
| S=C([S-])NCCNC(=S)[S-].[Zn+2] [Zinc ethylene-bis-dithiocarbamate, zinc-ethylene-bis-dithiocarbamate, reference compound] | 78 mm | 36 mm | – | 55 mm | 50 mm | 81 mm | Weight of fresh plant (Pythium ultimum; [11]): 7 g; Number of sound peas after 3 wks. (Pythium ultimum; [11]): 14 |
